# In US20230009145A1, “INHIBITION OF TMEM16A BY BENZBROMARONE OR NICLOSAMIDE FOR TREATING POLYCYSTIC KIDNEY DISEASE AND/OR POLYCYSTIC LIVER DISEASE” (UNIVERSITÄT REGENSBURG, priority 2019, published 2023):
# “Also recorded” adds a separate entry of the source.
# Tests used:
# M1 collecting duct cells [1] = assay: M1 renal organoid / cyst model (organoid/cyst volume in matrigel); type: cell-based, mouse; conditions: for increase in cyst volume upon knockdown of PKD1/PKD2: M1 organoids, shPKD1/shPKD2, 5 μM inhibitor
# Protocol: M1 cells were resuspended as a single-cell suspension in 50/50% Matrigel/type I collagen and transferred into 24-well plates (30×10^3 cells/well, four wells per condition) for 9 days. Medium was changed every 3 days. Every 3 days thirty random visual fields per well were photographed with an Axiovert 200 microscope (Zeiss, Germany). Cyst area of the lumina (˜30-150 cysts per condition and single experimental procedure) were measured with AxioVision (Zeiss, Germany). Cyst volume was then estimated using the formula for the volume of a sphere, 4/3πr^3.
# PKD1-/- mice (ADPKD) [2] = assay: Inhibition of cyst growth in vivo in PKD1-/- mice; parameters: species or system mouse; conditions: 1 μg/kg/day I.P. for 30 days
# Protocol: Inducible and tubule-specific PKD1 knockout (PKD1−/−) leads to ADPKD and polycystic kidney disease. Wt mice and mice with a knockout in the gene PKD1 were treated with benzbromarone (1 μg/kg/day intraperitoneal (I.P.) benzbromarone (BBR)) for 30 days starting 4 weeks after induction of the PKD1 knockout at postnatal (PN) 20-22.
# PKD1-/- mice (ADPKD) [3] = assay: Ki-67 cell proliferation in kidneys of PKD1-/- mice; type: in vivo, mouse; conditions: kidneys of PKD1-/- mice treated with benzbromarone
# Text: Cell proliferation was examined in kidneys of control animals (PKD+/+) and PKD1−/− animals using the proliferation marker Ki-67.
# M1 collecting duct cells [4] = assay: Ki-67 proliferation staining in M1 organoids/cysts; type: cell-based, mouse; conditions: M1 organoids, shPKD1/shPKD2, 5 μM inhibitor
# Protocol: M1 cells grown under confluent conditions for 4 days on glass coverslips and M1 organoids grown for 6 days were fixed for 10 min with methanol at −20° C. Organoids were isolated with ice cold 5 mM EDTA in PBS and seeded in poly-L-lysine coated coverslips. After seeded, cells were fixed for 10 min with methanol at −20° C. After washing, the cells were permeabilized with 0.5% (v/v, PBS) Triton X-100 for 10 min and blocked with 1% (w/v, PBS) bovine serum albumin for 1 h at room temperature. The cells were incubated overnight with primary antibodies (moo) against rabbit anti-TMEM16A (Davids Biotechnologie, Regensburg, Germany), or rat anti-Ki-67 (DAKO, M7249, Germany) or mouse anti-acetylated tubulin (T7451, Sigma-Aldrich, Germany). Binding of the primary antibody was visualized by incubation with appropriate secondary antibodies conjugated with Alexa Fluor 488 or Alexa Fluor 546 (1:300, Molecular Probes, Invitrogen). Nuclei were stained with Hoe33342 ([…] PBS, AppliChem, Darmstadt, Germany). Glass coverslips were mounted on glass slides with fluorescent mounting medium (DakoCytomation, Hamburg, Germany) and examined with an ApoTome Axiovert 200M fluorescence microscope (Zeiss, Germany).
# TMEM16A = target: T1, TMEM16A (Homo sapiens, UniProt Q5XXA6); conditions: references [1, 2]; cited from earlier work
# T1 sequence (Q5XXA6 1-986): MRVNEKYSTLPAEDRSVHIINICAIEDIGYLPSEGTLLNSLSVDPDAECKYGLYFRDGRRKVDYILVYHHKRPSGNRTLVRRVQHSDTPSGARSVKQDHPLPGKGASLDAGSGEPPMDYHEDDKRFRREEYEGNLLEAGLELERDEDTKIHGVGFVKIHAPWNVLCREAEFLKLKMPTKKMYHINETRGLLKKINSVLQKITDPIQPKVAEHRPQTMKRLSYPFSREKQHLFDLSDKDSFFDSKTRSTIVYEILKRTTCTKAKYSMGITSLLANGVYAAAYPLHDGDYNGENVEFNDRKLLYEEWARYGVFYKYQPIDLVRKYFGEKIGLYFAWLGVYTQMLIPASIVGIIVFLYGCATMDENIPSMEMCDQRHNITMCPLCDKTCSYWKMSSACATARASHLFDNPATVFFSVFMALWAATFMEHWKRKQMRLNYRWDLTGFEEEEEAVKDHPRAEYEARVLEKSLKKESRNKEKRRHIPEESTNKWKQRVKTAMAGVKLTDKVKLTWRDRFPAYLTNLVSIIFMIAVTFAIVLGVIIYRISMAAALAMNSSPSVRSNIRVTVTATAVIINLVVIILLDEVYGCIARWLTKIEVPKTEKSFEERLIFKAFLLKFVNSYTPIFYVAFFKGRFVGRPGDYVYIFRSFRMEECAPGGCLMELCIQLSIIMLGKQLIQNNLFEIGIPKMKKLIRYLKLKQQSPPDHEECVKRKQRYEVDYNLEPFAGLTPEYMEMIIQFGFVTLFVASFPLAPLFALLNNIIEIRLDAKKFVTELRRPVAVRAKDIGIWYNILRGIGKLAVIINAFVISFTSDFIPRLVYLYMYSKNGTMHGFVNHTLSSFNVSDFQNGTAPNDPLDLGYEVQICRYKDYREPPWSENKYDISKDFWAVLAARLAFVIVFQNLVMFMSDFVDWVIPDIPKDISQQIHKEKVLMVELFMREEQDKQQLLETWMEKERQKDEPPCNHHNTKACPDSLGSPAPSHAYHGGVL
# [5] = system: Polycystin-1-deficient collecting duct (plMDCK) cells; assay: plMDCK cyst growth in collagen I matrix; type: cell-based, dog; conditions: 10 μM forskolin, 5 days; for mean cyst volumes: 0.1 μM or 1 μM, vs control
# Protocol: Polycystin-1-deficient collecting duct ([…]) cells were resuspended within a collagen I matrix where they spontaneously form cysts and grow in a secretion-dependent manner in the presence of 10 μM forskolin for 5 days. Medium was supplemented with either 0.1 μM or 1 μM niclosamide or 0.1 μM or 1 μM nitazoxanide. Thereafter, cyst volumes were analyzed. […] The effect of niclosamide and derivatives thereof, e.g. nitazoxanide, on cyst growth was analyzed. Particularly, it was analyzed whether there is a dose-dependent effect on cyst growth. Polycystin-1-deficient collecting duct (p1MDCK) cells were resuspended in a collagen I matrix to form cysts in vitro and were cultured in the presence of […] forskolin for 5 days. The cells were treated with either 0.1 μM or 1 μM niclosamide, or with 0.1 μM or 1 μM of an exemplary niclosamide derivative, namely nitazoxanide.
# [6] = system: mouse primary renal epithelial and M1 collecting duct cells; assay: Measurement of [Ca2+]i (Fura-2); type: cell-based; conditions: for enhanced Ca2+ entry (SOCE) / enhanced CPA-induced store release: PKD1/PKD2 knockout cells; for enhanced Ca2+ entry (SOCE): 5 μM; for enhanced CPA-induced store release: CPA 10 μM, inhibitor 5 μM
# Protocol: Primary cilium and membrane Ca^2+ signals were detected after MDCK M2 and C7 cell were transfected with 5HT6-mCherry-GECO1.0 (5HT6-GECO, Addgene, Cambridge, Mass., USA). Cells were grown to confluence in glass coverslips and serum starved for 4-6 days to induce cilium formation. Afterwards, the cells were mounted and perfused in Ringer's solution. The mCherry fluorescence of the indicator was used to localize the Ca^2+ sensor. Therefore, before each experiment, a photo was taken exciting the 5HT6-GECO at 560 nm, and the emission was recorded between 620±30 nm using a CCD-camera (CoolSnap HQ, Visitron Systems, Germany). To measure the ciliary Ca^2+ changes, 5HT6-GECO was excited at 485/405 nm, and the emission was recorded between 535±12.5 nm. The results for [Ca^2+ ]cilium and [Ca^2+]cyt were obtained at 485/405 nm changes and given in ratio. Measurement of the global cytosolic Ca^2+ changes were performed as described recently. In brief, cells were loaded with 5 μM Fura-2, AM (Molecular Probes) in OptiMEM (Invitogen) with 0.02% pluronic (Molecular Probes) for 1 h at RT and 30 min at 37° C. Fura-2 was excited at 340/380 nm, and the emission was recorded between 470 and 550 nm using a CCD-camera (CoolSnap HQ, Visitron Systems, Germany). Control of experiment, imaging acquisition, and data analysis were done with the software package Meta-Fluor (Universal imaging, USA). [Ca2+]i was calculated from the 340/380 nm fluorescence ratio after background subtraction. The formula used to calculate [Ca^2+]i was [Ca^2+]i=Kd×(R−Rmin)/(Rmax−R)×(Sf2/Sb2), where R is the observed fluorescence ratio. The values Rmax and Rmin (maximum and minimum ratios) and the constant Sf2/Sb2 (fluorescence of free and Ca^2+-bound Fura-2 at 380 nm) were calculated using 1 μmol/liter ionomycin (Calbiochem), 5 μmol/liter nigericin, 10 μmol/liter monensin (Sigma), and 5 mmol/liter EGTA to equilibrate intracellular and extracellular Ca^2+ in intact Fura-2-loaded cells. The dissociation constant for the Fura-2·Ca^2+ complex was taken as 224 nmol/liter. ER Ca^2+ signals were detected in Ca^2+ sensor ER-LAR-GECO1 (Addgene, Cambridge, Mass., USA) expressing M1 cells. Cells were excited at 560 nm and emission was recorded between 620±30 nm.
smiles,measurement,setting,value
N=C(N)NC(=O)c1nc(Cl)c(N)nc1N [amiloride],M1 organoid volume when grown in amiloride,"M1 collecting duct cells [1]; M1 renal organoids, data not shown",increase their volume
CCc1oc2ccccc2c1C(=O)c1cc(Br)c(O)c(Br)c1 [benzbromarone],cyst development / cyst growth,PKD1-/- mice (ADPKD) [2],remarkable delay in cyst development
same,cyst development / cyst growth,PKD1-/- mice (ADPKD) [2]; listed as Benzbromarone,significantly inhibits cyst growth
same,increase in cyst volume upon knockdown of PKD1/PKD2,M1 collecting duct cells [1],inhibition
same,increase in cyst volume upon knockdown of PKD1/PKD2,M1 collecting duct cells [1]; listed as Benzbromarone,blocked increase in volume
same,pathologic cell proliferation (Ki-67),PKD1-/- mice (ADPKD) [3],inhibition of pathologic cell proliferation; also recorded: largely abolished pathologic proliferation
same,increase in proliferation (Ki-67) upon knockdown of PKD1/PKD2,M1 collecting duct cells [4],inhibition
same,increase in proliferation (Ki-67) upon knockdown of PKD1/PKD2,M1 collecting duct cells [4]; listed as Benzbromarone,blocked increase in volume and proliferation
same,inhibition of TMEM16A,TMEM16A,potently inhibit
CC(=O)Oc1ccccc1C(=O)Nc1ncc([N+](=O)[O-])s1 [nitazoxanide],mean cyst volumes,[5],inhibit cyst growth in a dose-dependent manner; also recorded: significantly decreased
same,"reduction in cyst volumes, 1 μM compared to 0.1 μM",[5],higher reduction in cyst volumes
Cc1nnsc1C(=O)Nc1ccc(-n2nc(C(F)(F)F)cc2C(F)(F)F)cc1 [YM58483],enhanced Ca2+ entry (SOCE),[6],inhibited enhanced Ca^2+ entry
same,enhanced CPA-induced store release,[6],abolished enhanced CPA-induced store release
"O=C(Nc1ccc([N+](=O)[O-])cc1Cl)c1cc(Cl)ccc1O [niclosamide, 5-Chlor-N-(2-chlor-4-nitrophenyl)-2-hydroxybenzamid]",mean cyst volumes,[5],inhibit cyst growth in a dose-dependent manner; also recorded: significantly decreased
same,"reduction in cyst volumes, 1 μM compared to 0.1 μM",[5],higher reduction in cyst volumes
same,inhibition of TMEM16A,TMEM16A,potent inhibitor
CCCCNc1cc(C(=O)O)cc(S(N)(=O)=O)c1Oc1ccccc1 [bumetanide],formation of the M1 renal organoid,"M1 collecting duct cells [1]; M1 organoids without knockdown, bumetanide 100 μM continuously in matrigel",did not interfere with the formation of the organoid
same,increase in organoid volume upon knockdown of PKD1 or PKD2,"M1 collecting duct cells [1]; shPKD1/shPKD2 M1 cells, bumetanide 100 μM, 9 days",inhibited
COc1ccc(CCCOC(Cn2ccnc2)c2ccc(OC)cc2)cc1 (stereo not shown) [SK&F96365],enhanced Ca2+ entry (SOCE),[6],inhibited enhanced Ca^2+ entry
same,enhanced CPA-induced store release,[6],abolished enhanced CPA-induced store release
CC(C)(C)C1CCc2c(sc(NC(=O)c3ccco3)c2C(=O)O)C1 (stereo not shown) [CaCCinhAO1],increase in cyst volume upon knockdown of PKD1/PKD2,M1 collecting duct cells [1],blocked increase in volume
same,increase in cyst volume upon knockdown of PKD1/PKD2,M1 collecting duct cells [1]; listed as CaCCinhA01,inhibition
same,increase in proliferation (Ki-67) upon knockdown of PKD1/PKD2,M1 collecting duct cells [4],blocked increase in volume and proliferation
same,increase in proliferation (Ki-67) upon knockdown of PKD1/PKD2,M1 collecting duct cells [4]; listed as CaCCinhA01,inhibition
Cn1c(=O)c2c(ncn2C)n(C)c1=O [caffeine],intracellular Ca2+,[6]; mouse wt and PKD1-/- primary renal epithelial and M1 collecting duct cells,did not increase intracellular Ca^2+
